Reference: US10287255B2, “Compounds as histone deacetylase 6 inhibitors and pharmaceutical compositions comprising the same” (CHONG KUN DANG PHARMACEUTICAL CORP., priority 2014, dated 2019)

Experiments:
human recombinant HDAC6 = target: T1, human recombinant HDAC6 (Homo sapiens, UniProt Q9UBN7); experiment: HDAC6 enzyme activity inhibition assay (in vitro, fluorimetric); type: biochemical; conditions: for HDAC6 selectivity (fold): HDAC6 selectivity over HDAC1; for IC50: human recombinant HDAC6, fluorimetric kit, same protocol as HDAC1
T1 construct: purchased Calbiochem 382180
T1 sequence (Q9UBN7 1-1215): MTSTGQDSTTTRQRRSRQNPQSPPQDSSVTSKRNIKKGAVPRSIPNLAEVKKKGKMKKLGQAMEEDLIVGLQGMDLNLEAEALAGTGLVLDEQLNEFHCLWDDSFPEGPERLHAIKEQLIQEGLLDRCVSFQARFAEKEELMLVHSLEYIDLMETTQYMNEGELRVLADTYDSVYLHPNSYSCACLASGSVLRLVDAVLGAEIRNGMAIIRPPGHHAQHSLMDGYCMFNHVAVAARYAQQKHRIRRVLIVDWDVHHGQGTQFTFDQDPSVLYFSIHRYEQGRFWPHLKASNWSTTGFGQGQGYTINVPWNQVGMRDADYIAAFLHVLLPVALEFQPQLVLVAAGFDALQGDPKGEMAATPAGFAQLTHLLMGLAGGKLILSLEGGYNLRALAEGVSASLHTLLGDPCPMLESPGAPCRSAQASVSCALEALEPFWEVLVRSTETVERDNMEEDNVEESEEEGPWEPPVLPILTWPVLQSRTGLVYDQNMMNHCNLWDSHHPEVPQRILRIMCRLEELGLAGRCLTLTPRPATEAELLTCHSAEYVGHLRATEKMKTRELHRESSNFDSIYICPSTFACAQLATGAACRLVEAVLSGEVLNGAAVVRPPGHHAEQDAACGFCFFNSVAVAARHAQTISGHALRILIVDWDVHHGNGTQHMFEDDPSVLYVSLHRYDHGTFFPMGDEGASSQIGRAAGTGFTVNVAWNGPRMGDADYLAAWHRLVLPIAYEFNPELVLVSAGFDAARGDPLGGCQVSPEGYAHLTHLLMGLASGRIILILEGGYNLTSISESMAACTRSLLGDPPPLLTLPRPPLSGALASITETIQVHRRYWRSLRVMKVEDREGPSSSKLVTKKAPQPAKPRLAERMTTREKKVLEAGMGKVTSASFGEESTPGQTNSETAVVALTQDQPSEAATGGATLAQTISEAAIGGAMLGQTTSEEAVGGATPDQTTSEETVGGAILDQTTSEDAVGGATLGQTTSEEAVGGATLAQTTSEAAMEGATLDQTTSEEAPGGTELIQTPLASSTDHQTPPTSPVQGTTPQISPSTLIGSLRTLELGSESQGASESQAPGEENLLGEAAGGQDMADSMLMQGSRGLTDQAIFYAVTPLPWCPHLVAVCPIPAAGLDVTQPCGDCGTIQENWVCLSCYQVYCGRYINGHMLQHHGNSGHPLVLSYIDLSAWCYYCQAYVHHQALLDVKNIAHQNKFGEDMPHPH
Method in brief: (§1)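 Human recombinant enzyme (0.3 μg for HDAC1) reacted with 10 μM Fluor de Lys-SIRT1 substrate and 5-fold compound dilutions at 30 °C for 60 min, then developer for 30 min. Fluorescence read at Ex 360/Em 460; IC50 calculated. HDAC6 run by the same protocol.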

human recombinant HDAC1 = target: T2, human recombinant HDAC1 (Homo sapiens, UniProt Q13547); experiment: HDAC1 enzyme activity inhibition assay (in vitro, fluorimetric); type: biochemical; conditions: human recombinant HDAC1, fluorimetric kit, 30° C. 60 minutes
T2 construct: purchased Enzo Life Science BML-SE456
T2 sequence (Q13547 whole entry): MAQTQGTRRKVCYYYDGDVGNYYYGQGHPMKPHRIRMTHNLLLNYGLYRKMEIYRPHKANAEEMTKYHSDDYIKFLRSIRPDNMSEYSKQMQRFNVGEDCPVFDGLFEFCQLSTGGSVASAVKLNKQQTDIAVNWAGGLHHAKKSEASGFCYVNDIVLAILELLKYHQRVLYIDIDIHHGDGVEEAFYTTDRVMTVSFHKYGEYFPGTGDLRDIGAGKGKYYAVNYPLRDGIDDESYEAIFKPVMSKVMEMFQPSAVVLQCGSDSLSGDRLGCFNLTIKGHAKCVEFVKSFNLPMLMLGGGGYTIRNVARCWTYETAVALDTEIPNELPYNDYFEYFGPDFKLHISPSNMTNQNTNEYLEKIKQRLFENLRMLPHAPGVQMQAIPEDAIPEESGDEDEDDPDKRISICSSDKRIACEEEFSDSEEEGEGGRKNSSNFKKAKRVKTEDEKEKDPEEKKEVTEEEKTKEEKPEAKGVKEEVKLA
Method in brief: as §1

HDAC6 selectivity (fold) (human recombinant HDAC6) | IC50 (human recombinant HDAC6) [µM] | IC50 (human recombinant HDAC1) [µM] | Structure (SMILES)
12 | 0.177 | 2.1 | C[C@@H]1CN(C(=O)N2CCc3ccccc32)C[C@H](C)N1Cc1ccc(C(=O)NO)cc1 [Compound 197, N-hydroxy-4-(((2S,6R)-4-(indoline-1-carbonyl)-2,6-dimethylpiperazin-1-yl)methyl)benzamide]
51 | 0.241 | 12.2 | CCCCN(C(=O)N1C[C@@H](C)N(Cc2ccc(C(=O)NO)cc2)[C@@H](C)C1)c1ccccc1 [Compound 198, (3R,5S)-N-butyl-4-(4-(hydroxycarbamoyl)benzyl)-3,5-dimethyl-N-phenylpiperazine-1-carboxamide]
>12 | 0.807 | > 10 | C[C@@H]1CN(Cc2ccc(C(=O)NO)cc2)C[C@H](C)N1CCCC(F)(F)F [Compound 204, 4-(((3R,5S)-3,5-dimethyl-4-(4,4,4-trifluorobutyl)piperazin-1-yl)methyl)-N-hydroxybenzamide]
>154 | 0.065 | > 10 | C[C@@H]1CN(Cc2ccc(C(=O)NO)cc2)C[C@H](C)N1Cc1ccccc1F [Compound 211, 4-(((3R,5S)-4-(2-fluorobenzyl)-3,5-dimethylpiperazin-1-yl)methyl)-N-hydroxybenzamide]
>28 | 0.358 | > 10 | C[C@@H]1CN(Cc2ccc(C(=O)NO)cc2)C[C@H](C)N1Cc1cc(F)ccc1F [Compound 212, 4-(((3R,5S)-4-(2,5-difluorobenzyl)-3,5-dimethylpiperazin-1-yl)methyl)-N-hydroxybenzamide]
>29 | 0.349 | > 10 | C[C@@H]1CN(Cc2ccc(C(=O)NO)cc2)C[C@H](C)N1Cc1cc(F)c(F)cc1F [Compound 213, 4-(((3R,5S)-3,5-dimethyl-4-(2,4,5-trifluorobenzyl)piperazin-1-yl)methyl)-N-hydroxybenzamide]
>61 | 0.165 | > 10 | C[C@@H]1CN(Cc2ccc(C(=O)NO)cc2)C[C@H](C)N1Cc1cc(C(F)(F)F)cc(C(F)(F)F)c1 [Compound 214, 4-(((3R,5S)-4-(3,5-bis(trifluoromethyl)benzyl)-3,5-dimethylpiperazin-1-yl)methyl)-N-hydroxybenzamide]
2 | 0.523 | > 10 | C[C@@H]1CN(Cc2cc(F)c(F)cc2F)C[C@H](C)N1Cc1ccc(C(=O)NO)cc1 [Compound 215, 4-(((2S,6R)-2,6-dimethyl-4-(2,4,5-trifluorobenzyl)piperazin-1-yl)methyl)-N-hydroxybenzamide]
15 | 0.749 | 11.1 | C[C@@H]1CN(CCc2ccc(C(=O)NO)cc2)C[C@H](C)N1Cc1ccccc1 [Compound 218, 4-(2-((3R,5S)-4-benzyl-3,5-dimethylpiperazin-1-yl)ethyl)-N-hydroxybenzamide]
>59 | 0.17 | > 10 | CC(c1ccc(C(=O)NO)cc1)N1C[C@@H](C)N(Cc2ccccc2)[C@@H](C)C1 (stereo partly drawn) [Compound 219, 4-(1-((3R,5S)-4-benzyl-3,5-dimethylpiperazin-1-yl)ethyl)-N-hydroxybenzamide]
13 | 1.23 | 15.9 | CC(c1ccccc1)N1C[C@@H](C)N(Cc2ccc(C(=O)NO)cc2)[C@@H](C)C1 (stereo partly drawn) [Compound 220, 4-(((2S,6R)-2,6-dimethyl-4-(1-phenylethyl)piperazin-1-yl)methyl)-N-hydroxybenzamide]

Structure (SMILES) | HDAC6 selectivity (fold) (human recombinant HDAC6) | IC50 (human recombinant HDAC6) [µM] | IC50 (human recombinant HDAC1) [µM]
C[C@@H]1CN(Cc2ccc(C(=O)NO)cc2)C[C@H](C)N1C(=O)Cc1cccc(F)c1 [Compound 222, 4-(((3R,5S)-4-(2-(3-fluorophenyl)acetyl)-3,5-dimethylpiperazin-1-yl)methyl)-N-hydroxybenzamide] | 16 | 0.1 | 1.6
